Reference: patent publication US20100063065A1 (Inpharmatica Limited, priority 2005, published 2010)

Target: T1, PPARδ (Homo sapiens, UniProt Q03181)
T1 construct: fused to amino acids 147-441 of PPARδ downstream of CMV promoter; expressed in transfected cells; host or cells: HEK293 cells, transiently transfected with pFACMV-PPARδ using Fugene
T1 sequence (Q03181 147-441): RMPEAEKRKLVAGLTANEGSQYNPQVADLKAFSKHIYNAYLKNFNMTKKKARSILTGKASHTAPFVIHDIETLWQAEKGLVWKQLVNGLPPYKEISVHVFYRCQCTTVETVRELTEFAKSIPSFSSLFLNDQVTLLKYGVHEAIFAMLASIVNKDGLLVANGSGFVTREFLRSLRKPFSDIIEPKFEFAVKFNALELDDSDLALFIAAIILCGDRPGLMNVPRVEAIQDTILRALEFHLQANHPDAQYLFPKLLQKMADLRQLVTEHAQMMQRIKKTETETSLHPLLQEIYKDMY
Assay: Transactivation assay (PPARδ GAL4 assay) in transiently transfected HEK293 cells
Format: cell-based
Details: luciferase reporter, Table 2
Procedure, shortened: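 HEK293 cells transiently co-transfected with GAL4 DBD (aa 1-147)–PPARδ (aa 147-441) fusion and 5×GAL4-luciferase reporter, then exposed 24 h to compound (final 0-30 μM) in OptiMEM at 37° C. Luminescence read; activity as percent of GW501516 control, EC50 from sigmoidal dose-response fit.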

SMILES | EC50 [nM]
CCc1cc(C(=O)c2ccc(Cl)cc2)c(NC(=O)CSc2ccc(OCC(=O)O)cc2)s1 [Example 136, (4-{[3-(4-Chloro-benzoyl)-5-ethyl-thiophen-2-ylcarbamoyl]-methylsulfanyl}-phenoxy)-acetic acid] | 1000 to 30000
CCc1cc(C(=O)c2ccc(F)cc2)c(NC(=O)CSc2ccc(OC(C)(C)C(=O)O)cc2)s1 [Example 137, 2-(4-{[5-Ethyl-3-(4-fluoro-benzoyl)-thiophen-2-ylcarbamoyl]-methylsulfanyl}-phenoxy)-2-methyl-propionic acid] | 100 to 1000
CCc1cc(C(=O)c2ccc(Cl)cc2)c(NC(=O)CSc2ccc(OC(C)(C)C(=O)O)cc2)s1 [Example 138, 2-(4-{[3-(4-Chloro-benzoyl)-5-ethyl-thiophen-2-ylcarbamoyl]-methylsulfanyl}-phenoxy)-2-methyl-propionic acid] | 100 to 1000
CCc1cc(C(=O)c2nc3ccccc3s2)c(NC(=O)CSCC(=O)O)s1 [Example 139, {[3-(Benzothiazole-2-carbonyl)-5-ethyl-thiophen-2-ylcarbamoyl]-methylsulfanyl}-acetic acid] | 1000 to 30000
CCc1cc(C(=O)c2cc3ccccc3o2)c(NC(=O)CSCC(=O)O)s1 [Example 140, {[3-(Benzofuran-2-carbonyl)-5-ethyl-thiophen-2-ylcarbamoyl]-methylsulfanyl}-acetic acid] | 1000 to 30000
Cc1cc(C(=O)c2ccc(OC(F)(F)F)cc2)c(NC(=O)CSc2ccc(OCC(=O)O)cc2)s1 [Example 141, (4-{[5-Methyl-3-(4-trifluoromethoxy-benzoyl)-thiophen-2-ylcarbamoyl]-methylsulfanyl}-phenoxy)-acetic acid] | < 100
CCc1cc(C(=O)c2ccc(OC(F)(F)F)c(Cl)c2)c(NC(=O)CSCC(=O)O)s1 [Example 142, {[3-(3-Chloro-4-trifluoromethoxy-benzoyl)-5-ethyl-thiophen-2-ylcarbamoyl]-methylsulfanyl}-acetic acid] | < 100
CCc1cc(C(=O)c2cccc(OC(F)(F)F)c2)c(NC(=O)CSCC(=O)O)s1 [Example 143, {[5-Ethyl-3-(3-trifluoromethoxy-benzoyl)-thiophen-2-ylcarbamoyl]-methylsulfanyl}-acetic acid] | 1000 to 30000
CCc1cc(C(=O)c2cc(C)n(C)n2)c(NC(=O)CSCC(=O)O)s1 [Example 144, {[3-(1,5-Dimethyl-1H-pyrazole-3-carbonyl)-5-ethyl-thiophen-2-ylcarbamoyl]-methylsulfanyl}-acetic acid] | 1000 to 30000
CCc1cc(C(=O)c2ccc(-c3ccccn3)cc2)c(NC(=O)CSCC(=O)O)s1 [Example 145, {[5-Ethyl-3-(4-pyridin-2-yl-benzoyl)-thiophen-2-ylcarbamoyl]-methylsulfanyl}-acetic acid] | 100 to 1000
CCc1cc(C(=O)c2ccc(OC(F)(F)F)cc2)c(NC(=O)CCC(C)(C)C(=O)O)s1 [Example 146, 4-[5-Ethyl-3-(4-trifluoromethoxy-benzoyl)-thiophen-2-ylcarbamoyl]-2,2-dimethyl-butyric acid] | < 100
CCc1cc(C(=O)c2ccc(Cl)cc2)c(NC(=O)CCC(C)(C)C(=O)O)s1 [Example 147, 4-[3-(4-Chloro-benzoyl)-5-ethyl-thiophen-2-ylcarbamoyl]-2,2-dimethyl-butyric acid] | 100 to 1000
CCc1cc(C(=O)c2ccc(OC(F)(F)F)c(F)c2)c(NC(=O)CCC(C)(C)C(=O)O)s1 [Example 148, 4-[5-Ethyl-3-(3-fluoro-4-trifluoromethoxy-benzoyl)-thiophen-2-ylcarbamoyl]-2,2-dimethyl-butyric acid] | 100 to 1000
CCc1cc(C(=O)c2cc3ccccc3n2C)c(NC(=O)CSCC(=O)O)s1 [Example 149, {[5-Ethyl-3-(1-methyl-1H-indole-2-carbonyl)-thiophen-2-ylcarbamoyl]-methylsulfanyl}-acetic acid] | 1000 to 30000
CCc1cc(C(=O)c2cc3cc(OC(F)(F)F)ccc3n2C)c(NC(=O)CSCC(=O)O)s1 [Example 150, {[5-Ethyl-3-(1-methyl-5-trifluoromethoxy-1H-indole-2-carbonyl)-thiophen-2-ylcarbamoyl]-methylsulfanyl}-acetic acid] | < 100
CCc1cc(C(=O)c2cc3cc(Cl)ccc3n2C)c(NC(=O)CSCC(=O)O)s1 [Example 151, {[3-(5-Chloro-1-methyl-1H-indole-2-carbonyl)-5-ethyl-thiophen-2-ylcarbamoyl]-methylsulfanyl}-acetic acid] | < 100
CCc1cc(C(=O)c2cc3cc(OC(F)(F)F)ccc3n2C)c(NC(=O)CCC(C)(C)C(=O)O)s1 [Example 152, 4-[5-Ethyl-3-(1-methyl-5-trifluoromethoxy-H-indole-2-carbonyl)-thiophen-2-ylcarbamoyl]-2,2-dimethyl-butyric acid] | < 100

SMILES | EC50 [nM]
CCc1cc(C(=O)c2nc3ccc(OC(F)(F)F)cc3s2)c(NC(=O)CSCC(=O)O)s1 [Example 153, {[5-Ethyl-3-(6-trifluoromethoxy-benzothiazole-2-carbonyl)-thiophen-2-ylcarbamoyl]-methylsulfanyl}-acetic acid] | 100 to 1000
CCc1cc(C(=O)c2nc3ccc(Cl)cc3s2)c(NC(=O)CSCC(=O)O)s1 [Example 154, {[3-(6-Chloro-benzothiazole-2-carbonyl)-5-ethyl-thiophen-2-ylcarbamoyl]-methylsulfanyl}-acetic acid] | 100 to 1000
CCc1cc(C(=O)c2nc3cc(Cl)ccc3s2)c(NC(=O)CSCC(=O)O)s1 [Example 155, {[3-(5-Chloro-benzothiazole-2-carbonyl)-5-ethyl-thiophen-2-ylcarbamoyl]-methylsulfanyl}-acetic acid] | 100 to 1000
CCc1cc(C(=O)c2ccc3cc(Cl)ccc3n2)c(NC(=O)CSCC(=O)O)s1 [Example 156, {[3-(6-Chloro-quinoline-2-carbonyl)-5-ethyl-thiophen-2-ylcarbamoyl]-methylsulfanyl}-acetic acid] | 100 to 1000
CCc1cc(C(=O)c2cn(C)c3ccc(Cl)cc23)c(NC(=O)CSCC(=O)O)s1 [Example 157, {[3-(5-Chloro-1-methyl-1H-indole-3-carbonyl)-5-ethyl-thiophen-2-ylcarbamoyl]-methylsulfanyl}-acetic acid] | 100 to 1000
CCc1cc(C(=O)c2ccc(OC(F)(F)F)cc2)c(NC(=O)C(C)NCC(=O)O)s1 (stereo not drawn) [Example 158, {1-[5-Ethyl-3-(4-trifluoromethoxy-benzoyl)-thiophen-2-ylcarbamoyl]-ethylamino}-acetic acid] | 100 to 1000
CCc1cc(C(=O)c2ccc(OC(F)(F)F)cc2)c(NC(=O)CN2CCCC(C(=O)O)C2)s1 (stereo not drawn) [Example 159, 1-{[5-Ethyl-3-(4-trifluoromethoxy-benzoyl)-thiophen-2-ylcarbamoyl]-methyl}-piperidine-3-carboxylic acid] | 100 to 1000
CCc1cc(C(=O)c2ccc(OC(F)(F)F)cc2)c(NC(=O)CN[C@@H](C)C(=O)O)s1 [Example 160, (S)-2-({[5-Ethyl-3-(4-trifluoromethoxy-benzoyl)-thiophen-2-ylcarbamoyl]-methyl}-amino)-propionic acid] | 100 to 1000
CCc1cc(C(=O)c2ccc(OC(F)(F)F)cc2)c(NC(=O)CN[C@H](C)C(=O)O)s1 [Example 161, (R)-2-({[5-Ethyl-3-(4-trifluoromethoxy-benzoyl)-thiophen-2-ylcarbamoyl]-methyl}-amino)-propionic acid] | 100 to 1000
CCc1cc(C(=O)c2ccc(OC(F)(F)F)cc2)c(NC(=O)CN2CCC(C(=O)O)C2)s1 (stereo not drawn) [Example 162, 1-{[5-Ethyl-3-(4-trifluoromethoxy-benzoyl)-thiophen-2-ylcarbamoyl]-methyl}-pyrrolidine-3-carboxylic acid] | 100 to 1000
CCc1cc(C(=O)c2ccc(OC(F)(F)F)cc2)c(NC(=O)CN2CCC(C(=O)O)CC2)s1 [Example 163, 1-{[5-Ethyl-3-(4-trifluoromethoxy-benzoyl)-thiophen-2-ylcarbamoyl]-methyl}-piperidine-4-carboxylic acid] | 100 to 1000
CCc1cc(C(=O)c2ccc(OC(F)(F)F)cc2)c(NC(=O)CNC2(C(=O)O)CCC2)s1 [Example 164, 1-({[5-Ethyl-3-(4-trifluoromethoxy-benzoyl)-thiophen-2-ylcarbamoyl]-methyl}-amino)-cyclobutanecarboxylic acid] | < 100
CCc1cc(C(=O)c2ccc(OC(F)(F)F)cc2)c(NC(=O)CN2CCCCC2C(=O)O)s1 (stereo not drawn) [Example 165, 1-{[5-Ethyl-3-(4-trifluoromethoxy-benzoyl)-thiophen-2-ylcarbamoyl]-methyl}-piperidine-2-carboxylic acid] | 100 to 1000
CCc1cc(C(=O)c2ccc(OC(F)(F)F)cc2)c(NC(=O)CNC2(C(=O)O)CCCCC2)s1 [Example 166, 1-({[5-Ethyl-3-(4-trifluoromethoxy-benzoyl)-thiophen-2-ylcarbamoyl]-methyl}-amino)-cyclohexanecarboxylic acid] | 100 to 1000
CCc1cc(C(=O)c2ccc(OC(F)(F)F)cc2)c(NC(=O)CN2CCC[C@H]2C(=O)O)s1 [Example 167, (S)-1-{[5-Ethyl-3-(4-trifluoromethoxy-benzoyl)-thiophen-2-ylcarbamoyl]-methyl}-pyrrolidine-2-carboxylic acid] | 1000 to 30000
CCc1cc(C(=O)c2ccc(OC(F)(F)F)cc2)c(NC(=O)CN2CCC[C@@H]2C(=O)O)s1 [Example 168, (R)-1-{[5-Ethyl-3-(4-trifluoromethoxy-benzoyl)-thiophen-2-ylcarbamoyl]-methyl}-pyrrolidine-2-carboxylic acid] | 100 to 1000
